# According to patent publication US6964949B2, “Pharmaceutical compositions for promoting the growth of gram-positive bacilli and increasing the acidity in the vagina and the use thereof” (Shanghai Jiao Da Onlly Co., Ltd., priority 2000, dated 2005):
# Key:
# Assay in all cases: Experiment Example 3: 2.5% maltose or sucrose, specimen culture, Gram smear
# Type in all cases: cell-based
# Details in all cases: 2.5% saccharide, 1.0% yeast extract, 1.6% xanthan gum, pH 6.2, candle jar, 37° C.
# [1] = test system: Gram-positive bacilli
# Procedure: (§1) • (1) The preparation of the compositions: Maltose and sucrose were used respectively to prepare the following composition according to the methods mentioned above: • A. 2.5% maltose, 1.0% yeast extract, 1.6% xanthan gum, pH adjusted to 6.2; • B. 2.5% sucrose, 1.0 yeast extract, 1.6% xanthan gum, pH adjusted to 6.2; • (2) The preparation of the test tubes: Compositions as prepared above were filled into the test tubes, with each tube containing 5 ml, sterilized, and kept until use for experiment. • (3) Specimen suspension: Vaginal secretion was taken from one of the patients suffering from typical bacterial vaginosis with a cotton swab, then the swab was washed in 2 ml sterilized Trypcase-soy Broth immediately, and thus the specimen suspension was ready. […] Then the tubes were placed in a candle jar and cultivated at 37° C. After 24 hours and 48 hours' culture, culture samples were taken respectively from each of the tubes, then the Gram smears of the samples were observed and the pH values of culture samples were tested.
# [2] = test system: Gram-positive cocci
# Procedure: as §1
# [3] = test system: Gram-negative cocci
# Procedure: as §1
# [4] = test system: Gram-negative bacilli
# Procedure: as §1
smiles,measurement,setting,value
"OC[C@H]1O[C@@](CO)(O[C@H]2O[C@H](CO)[C@@H](O)[C@H](O)[C@H]2O)[C@@H](O)[C@@H]1O [Sucrose, sucrose]","Bacteria G + b (Gram-positive bacilli), 24 hours-culture",[1]; 24 hours,"G + b, + (1-9 bacteria per field of vision under oil-immersion lens)"
same,"Bacteria G + b (Gram-positive bacilli), 48 hours-culture",[1]; 48 hours,"G + b, + (1-9 bacteria per field of vision under oil-immersion lens)"
same,"Bacteria G + c (Gram-positive cocci), 24 hours-culture",[2]; 24 hours,"G + c, + (1-9 bacteria per field of vision under oil-immersion lens)"
same,"Bacteria G + c (Gram-positive cocci), 48 hours-culture",[2]; 48 hours,"G + c, + (1-9 bacteria per field of vision under oil-immersion lens)"
same,"Bacteria G − c (Gram-negative cocci), 24 hours-culture",[3]; 24 hours,"G − c, − (No or less than one bacterium per field of version under oil-immersion lens)"
same,"Bacteria G − c (Gram-negative cocci), 48 hours-culture",[3]; 48 hours,"G − c, − (No or less than one bacterium per field of version under oil-immersion lens)"
same,"Bacteria G − b (Gram-negative bacilli), 24 hours-culture",[4]; 24 hours,"G − b, + (1-9 bacteria per field of vision under oil-immersion lens)"
same,"Bacteria G − b (Gram-negative bacilli), 48 hours-culture",[4]; 48 hours,"G − b, ++ (About 10-99 bacteria per field of vision under oil-immersion lens)"
